From patent publication US20220016215A1, “GIP RECEPTOR AGONIST PEPTIDE COMPOUNDS AND USES THEREOF” (TAKEDA PHAARMACEUTICAL COMPANY LIMITED, priority 2018, published 2022)
Like-named read-outs stand apart in the source and are kept apart here.

Tests used:
human GIPR = target: T1, human GIPR (Homo sapiens, UniProt P48546); assay: Agonist activity on human GIPR, CRE-luciferase reporter assay (increase in intracellular cAMP as indicator); assay type: cell-based; settings: for Selectivity Ratio (B/A): GLP1R EC50 / GIPR EC50; for EC50: hGIPR/CRE-LUC/CHO-K1 cells, 4 h incubation
T1 construct: expressed in transfected cells
T1 sequence (P48546 22-466): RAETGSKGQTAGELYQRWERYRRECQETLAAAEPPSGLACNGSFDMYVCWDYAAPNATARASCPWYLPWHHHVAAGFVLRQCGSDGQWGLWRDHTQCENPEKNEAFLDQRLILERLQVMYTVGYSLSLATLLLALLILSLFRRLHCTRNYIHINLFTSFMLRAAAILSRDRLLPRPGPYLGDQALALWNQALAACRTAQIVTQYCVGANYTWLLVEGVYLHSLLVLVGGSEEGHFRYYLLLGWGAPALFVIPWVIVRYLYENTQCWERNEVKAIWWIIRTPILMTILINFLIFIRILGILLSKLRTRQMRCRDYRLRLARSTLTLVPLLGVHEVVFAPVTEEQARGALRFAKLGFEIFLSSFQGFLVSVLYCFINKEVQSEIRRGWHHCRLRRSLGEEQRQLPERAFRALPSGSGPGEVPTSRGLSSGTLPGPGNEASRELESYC
In short: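 CHO-K1 cells carrying CRE-luciferase and stably expressing human GIPR, 5×10^3 cells/well, exposed to compound for 4 hours at 37° C.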

human GLP-1R = human GLP-1R (Homo sapiens, UniProt P43220); assay: Agonist activity on human GLP-1R, CRE-luciferase reporter assay (increase in intracellular cAMP as indicator); assay type: cell-based; set-up: expressed in transfected cells; settings: hGLP-1R/CRE-luc/CHO-K1 cells, 4 h incubation
Sequence of human GLP-1R (P43220 24-463): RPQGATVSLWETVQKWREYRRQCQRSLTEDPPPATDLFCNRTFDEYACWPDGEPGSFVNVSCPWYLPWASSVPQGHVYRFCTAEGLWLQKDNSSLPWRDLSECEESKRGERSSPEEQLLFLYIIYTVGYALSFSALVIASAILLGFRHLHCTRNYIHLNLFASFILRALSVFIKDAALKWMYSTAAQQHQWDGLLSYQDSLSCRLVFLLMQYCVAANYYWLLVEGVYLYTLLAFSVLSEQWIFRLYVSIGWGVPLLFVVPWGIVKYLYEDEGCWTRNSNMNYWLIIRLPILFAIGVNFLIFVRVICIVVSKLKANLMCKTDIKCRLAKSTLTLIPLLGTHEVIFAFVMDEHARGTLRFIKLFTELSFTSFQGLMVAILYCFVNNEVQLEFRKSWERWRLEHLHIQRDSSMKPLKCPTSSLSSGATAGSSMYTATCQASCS
Text: The human GIPR gene having an identical sequence to Genebank Accession No. U39231 is cloned into a pMSRα-neo vector to prepare hGIPR/pMSRα-neo.
(3) Construction of Reporter Plasmid
Four copies of a cAMP responsive sequence and a Zeocin resistance gene are transferred to pGL3(R2.2)-Basic Vector (Promega) to construct a Cre-luc(Zeo) reporter plasmid.
(5) Construction of Expression Plasmid of Human GLP-1R Gene
The human GLP-1R gene having an identical sequence to Genebank Accession No. NM_002062 is cloned into a pIRESneo3 vector to prepare hGLP-1/pIRESneo3.
(6) Transfer of Human GLP-1R Gene and Reporter Plasmid to CHO-K1 Cell and Obtaining of Expressing Cell
The Cre-luc (Zeo) obtained in (3) and the plasmid hGLP-1/pIRESneo3 obtained in (5) transferred to the CHO-K1 cell to obtain a transformant. Subsequently, the cell line inducing the luciferase expression, hGLP-1R/CRE-luc/CHO-K1 cell, is selected from the obtained transformant by adding GLP-1.
The GLP-1R agonist activity is assayed in the same manner as above using the hGLP-1R/CRE-luc/CHO-K1 cell.

[1] = test system: morphine (0.6 mg/kg, s.c.)-induced emesis in ferrets; assay: Morphine-induced acute emetic model in male ferrets; assay type: in vivo, ferret
In short: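 Male ferrets (4 per group) received peptide at 10 or 30 nmol/kg s.c. in 0.09% Tween 80/10% DMSO/saline, or vehicle. Morphine 0.6 mg/kg s.c. was given 4 or 120 h later, and abdominal contractions, vomiting, licking and fidgeting were recorded for up to 360 min.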

[2] = ferret, morphine 0.6 mg/kg s.c. 0.5 h after drug, 128 μg/kg s.c.
[3] = ferret, morphine 0.6 mg/kg s.c. 0.5 h after drug, 128 μg/kg s.c., non-responders counted as 30 min

SMILES: CC[C@H](C)[C@H](NC(=O)[C@H](CC(C)C)NC(=O)[C@H](Cc1c[nH]c2ccccc12)NC(=O)[C@H](CCC(N)=O)NC(=O)[C@@H](NC(=O)[C@H](Cc1ccccc1)NC(=O)[C@H](C)NC(=O)[C@H](CCCNC(=N)N)NC(=O)[C@H](CCC(N)=O)NC(=O)[C@H](C)NC(=O)[C@@H](NC(=O)[C@H](CCCCN)NC(=O)[C@H](CC(=O)O)NC(=O)[C@H](CC(C)C)NC(=O)C(C)(C)NC(=O)[C@@H](NC(=O)[C@H](CO)NC(=O)[C@H](Cc1ccc(O)cc1)NC(=O)[C@H](CC(=O)O)NC(=O)[C@H](CO)NC(=O)[C@@H](NC(=O)[C@H](Cc1ccccc1)NC(=O)[C@@H](NC(=O)CNC(=O)[C@H](CCC(=O)O)NC(=O)C(C)(C)NC(=O)[C@@H](N)Cc1ccc(O)cc1)[C@@H](C)O)[C@@H](C)O)[C@@H](C)CC)[C@@H](C)CC)C(C)C)C(=O)N[C@@H](C)C(=O)NC(C)(C)C(=O)N[C@@H](CCCCN)C(=O)NCC(=O)N[C@@H](CCCCN)C(=O)N[C@@H](CCCCN)C(=O)N[C@@H](CCC(N)=O)C(=O)N[C@@H](CCC(=O)O)C(=O)N[C@@H](Cc1c[nH]c2ccccc12)C(=O)N[C@@H](CCCCN)C(=O)N[C@@H](Cc1c[nH]cn1)C(=O)N[C@@H](CCC(N)=O)C(=O)N[C@H](C(=O)N[C@H](C(=O)N[C@@H](CCC(N)=O)C(=O)N[C@@H](CCCCNC(C)=O)C(N)=O)[C@@H](C)O)[C@@H](C)CC [Compound 16]
- Selectivity Ratio (B/A) (human GIPR): 20
- EC50 (human GIPR; read-out: GIPR pEC50 (converted)): 0.001 nM
- EC50 (human GLP-1R; read-out: GLP1R EC50 nM (B)): < 0.02 nM
- EC50 (human GLP-1R; read-out: GLP1R pEC50 (converted)): 0.017 nM

SMILES: CC[C@H](C)[C@H](NC(=O)[C@H](CO)NC(=O)[C@H](Cc1ccc(O)cc1)NC(=O)[C@H](CC(=O)O)NC(=O)[C@H](CO)NC(=O)[C@@H](NC(=O)[C@H](Cc1ccccc1)NC(=O)[C@@H](NC(=O)CNC(=O)[C@@H]1CCCN1C(=O)[C@H](C)NC(=O)[C@@H](N)Cc1ccc(O)cc1)[C@@H](C)O)[C@@H](C)CC)C(=O)N[C@@H](C)C(=O)N[C@@H](CCSC)C(=O)N[C@@H](CC(=O)O)C(=O)N[C@@H](CCCCN)C(=O)N[C@H](C(=O)N[C@@H](Cc1c[nH]cn1)C(=O)N[C@@H](CCC(N)=O)C(=O)N[C@@H](CCC(N)=O)C(=O)N[C@@H](CC(=O)O)C(=O)N[C@@H](Cc1ccccc1)C(=O)N[C@H](C(=O)N[C@@H](CC(N)=O)C(=O)N[C@@H](Cc1c[nH]c2ccccc12)C(=O)N[C@@H](CC(C)C)C(=O)N[C@@H](CC(C)C)C(=O)N[C@@H](C)C(=O)N[C@@H](CCC(N)=O)C(=O)N[C@@H](CCCCN)C(=O)N1CCC[C@H]1C(=O)N[C@@H](CO)C(=O)N[C@@H](CO)C(=O)NCC(=O)N[C@@H](C)C(=O)N1CCC[C@H]1C(=O)N1CCC[C@H]1C(=O)N1CCC[C@H]1C(=O)N[C@@H](CO)C(N)=O)C(C)C)[C@@H](C)CC [Compound 12]
- Selectivity Ratio (B/A) (human GIPR): >23,810
- EC50 (human GIPR; read-out: GIPR EC50 nM (A)): 0.042 nM
- Emesis: Duration [1, 2]: 1.5 ± 2.4 min
- Emesis: Frequency [1, 2]: 3.8 ± 5.7
- Emesis: No. of animals (responder/used) [1, 2]: 2/4
- Fidget: Duration [1, 2]: 1.3 ± 1.9 min
- Fidget: Frequency [1, 2]: 0.8 ± 1.0
- Fidget: No. of animals (responder/used) [1, 2]: 2/4
- Licking: Duration [1, 2]: 1.5 ± 1.7 min
- Licking: Frequency [1, 2]: 1.3 ± 1.0
- Licking: No. of animals (responder/used) [1, 2]: 3/4
- Retching: Duration [1, 2]: 1.5 ± 2.4 min
- Retching: Frequency [1, 2]: 3.3 ± 5.3
- Retching: No. of animals (responder/used) [1, 2]: 2/4
- Vomiting: Duration [1, 2]: 0.5 ± 0.6 min
- Vomiting: Frequency [1, 2]: 0.5 ± 0.6
- Vomiting: No. of animals (responder/used) [1, 2]: 2/4
- Emesis: Latency [1, 3]: 18.3 ± 13.7 min
- Fidget: Latency [1, 3]: 18.3 ± 13.7 min
- Licking: Latency [1, 3]: 13.8 ± 11.3 min
- Retching: Latency [1, 3]: 18.3 ± 13.7 min
- Vomiting: Latency [1, 3]: 19.5 ± 12.1 min
- Attenuation of morphine-induced emesis (in words) ([1]; male ferrets, 30 nmol/kg s.c. 30 minutes before morphine 0.6 mg/kg s.c.): completely attenuated
- Comment: Anti-Emetic Activity (inhibition) on morphine-induced emesis ([1]; male ferrets, summary of the morphine experiments): partial inhibition
- EC50 (human GLP-1R; read-out: GLP1R EC50 nM (B)): > 1000 nM
